Experimental findings from US11999964B2, “Synthetic mammalian signaling circuits for robust cell population control” (California Institute of Technology, priority 2020, dated 2024) are described below.

Holding throughout (format): cell-based, Hamster
In assay [1] the test system is cheaters from the negative feedback condition. Briefly: AP1903 killing of cheaters from the negative feedback condition. Particulars: 50 nM AP1903, two days, even in the presence of NAA. An excerpt: FIGS. 12A-12C depict non-limiting exemplary data showing the paradoxical circuit allows mutationally robust population control. (FIG. 12A) Cell lines evolved under paradoxical conditions are phenotypically different from cheaters evolved under negative feedback. Each dot represents one culture. Cells evolved under the negative feedback conditions form a tight cluster, which is fitted with a 2-D gaussian to show the 95 percentile (orange dashed ellipse). […] (FIG. 12B) Under paradoxical, but not negative feedback, conditions, mutations that reduce auxin sensing lead to apoptosis in cheaters (red inhibitory arrow), preventing unregulated growth and mutational escape. […] Cells were incubated with different levels of NAA for 6 hours, and then 50 nM of AP1903 was added (except in controls) for another two days. Confluencies were measured and normalized to the no AP1903 control (n=3).

In assay [2] the test system is Receiver cell line (CHO-K1 cells). Kind of assay: Receiver cell survival with IAA and blasticidin. Particulars: IAA added to media containing blasticidin; four days; dose-dependent. An excerpt: (§1) FIGS. 1A-1D depict non-limiting exemplary embodiments and data showing the plant hormone auxin allows private-channel mammalian cell-cell communication. […] Middle: Engineered cells that can send and receive the signal simultaneously can respond to their own population size. Right: coupling the sending-receiving function with cell survival in a negative feedback can enable population control. (FIG. 1B) Auxin Receiver cells constitutively express a fluorescent target fusion protein, mCherry-AID-BlastR, as well as the F-box protein osTIR1. […] The response of mCherry fluorescence to two different species of auxin (IAA and NAA) was measured after two days of treatment (dots). […] Cells were counted by flow cytometry (n=3, error bar=standard deviation). […]
Flow cytometry by trypsinizing 0.25% trypsin-EDTA (GIBCO) for 1 min at room temperature. […] Cells were then filtered through a 40 μm cell strainer and analyzed by flow cytometry (MACSQuant VYB, Miltenyi or CytoFLEX, Beckman Coulter). […] All fluorescence data were acquired as the median value of the gated population. For counting cells, 1000 CountBright beads (Life Technologies) were spiked into the sample before filtering, gated out by their fluorescence in analysis and used to estimate cell number in each sample.

A further assay has as its target T1, mCherry-AID-Blast R (UniProt P93830+Q7XVM8, DEL133-229).
T1 construct: expressed in transfected cells; 'Receiver' line
Kind of assay: Auxin regulation of mCherry-AID-BlastR fluorescence in Receiver cells. The conditions noted are these: Receiver CHO-K1 cells, two days of treatment, Michaelis-Menten fit; read-out: EC50, reduction of mCherry fluorescence.
Excerpt: as §1
To establish and characterize auxin regulation of mammalian cell growth, auxin sensing was coupled to drug resistance and fluorescence. Specifically, blasticidin S deaminase (Blast R), whose protein product is necessary for survival in the presence of blasticidin, was fused to AID and mCherry domains, allowing auxin-dependent degradation and fluorescent readout of protein concentration, respectively. […]
To fit the mCherry's response curve to auxin and population (FIG. 1C, FIGS. 3A and 3B; FIGS. 7A and 7B), it was assumed the log of fluorescence (F) follows an inverted Michaelis-Menten's equation as follow: […]

In the next assay the test system is parental cells. Kind of assay: Parental cells cultured with IAA and blasticidin (pilot). Particulars: cultured in the presence of IAA and blasticidin. The method, then:
FIGS. 14A-14D depict non-limiting exemplary data showing simple negative feedback enables cell density-dependent killing. (FIGS. 14A-14B) Long-term culture traces under 50 μg/ml and 100 μg/ml blasticidin conditions. Experimental setups are the same as FIG. 11B. […] A cell line collected from the experiment described in (FIG. 14D) was cultured, in parallel with the parental line, with different IAA and blasticidin combinations for 4 days. Survival rates were normalized to the parental line, and each bar is from a triplet. […] Cells were seeded into a 24-well imaging plate with 50 μg/ml of blasticidin solely or with 100 μM IAA or IAM, and no cells survived the combined IAA and blasticidin treatment. Each trace reflects an average of 12 positions in a sample well.
First, resistance mutations occurred in separately maintained, long-term cultures, and therefore could not spread from one culture to another. […] While sensing mutations are likely responsible at least in part for the mutant growth advantage, their specific effects in a parental background was not characterized. […] However, as described herein, a paradoxical circuit designs provide robust population control.

T1 sequence (P93830 65-132 limits assumed, stated change not applied): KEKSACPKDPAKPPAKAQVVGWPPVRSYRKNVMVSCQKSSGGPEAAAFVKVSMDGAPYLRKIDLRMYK
T1 sequence (Q7XVM8 whole entry, stated change not applied): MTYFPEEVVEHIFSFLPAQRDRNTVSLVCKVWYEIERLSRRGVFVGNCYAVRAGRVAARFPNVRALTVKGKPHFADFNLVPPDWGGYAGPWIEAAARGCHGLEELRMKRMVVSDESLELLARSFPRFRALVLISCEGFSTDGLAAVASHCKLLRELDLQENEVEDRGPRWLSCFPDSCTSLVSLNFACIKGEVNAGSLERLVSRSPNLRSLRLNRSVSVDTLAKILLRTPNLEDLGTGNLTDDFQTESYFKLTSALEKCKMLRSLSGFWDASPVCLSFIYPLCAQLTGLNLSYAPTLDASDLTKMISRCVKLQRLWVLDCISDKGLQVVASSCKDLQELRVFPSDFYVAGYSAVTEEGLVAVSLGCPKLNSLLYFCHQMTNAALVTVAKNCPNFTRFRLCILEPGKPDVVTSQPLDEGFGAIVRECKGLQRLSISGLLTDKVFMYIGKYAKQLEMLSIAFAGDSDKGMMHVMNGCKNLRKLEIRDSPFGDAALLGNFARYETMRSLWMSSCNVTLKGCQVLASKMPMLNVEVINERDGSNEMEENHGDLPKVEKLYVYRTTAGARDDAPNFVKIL
T1 sequence (Q9WTX5 whole entry partner): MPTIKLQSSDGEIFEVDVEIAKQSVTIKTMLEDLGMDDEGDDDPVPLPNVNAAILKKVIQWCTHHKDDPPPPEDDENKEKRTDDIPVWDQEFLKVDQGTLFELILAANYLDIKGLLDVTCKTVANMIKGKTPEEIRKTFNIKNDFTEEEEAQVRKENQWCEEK

`CC[C@H](C(=O)N1CCCC[C@H]1C(=O)O[C@H](CCc1ccc(OC)c(OC)c1)c1cccc(OCC(=O)NCCNC(=O)COc2cccc([C@@H](CCc3ccc(OC)c(OC)c3)OC(=O)[C@@H]3CCCCN3C(=O)[C@@H](CC)c3cc(OC)c(OC)c(OC)c3)c2)c1)c1cc(OC)c(OC)c(OC)c1` [AP1903]: in assay [1], the “Effect of iCasp9 activation by AP1903 on cheaters” value is “kills cheaters”.

For the compound `O=C(O)Cc1c[nH]c2ccccc12` [IAA, indole-3-acetic acid], the “Effect on cell survival” value in assay [2] is recorded as “inhibit cell survival”. Further, the EC50 (usually the midpoint of the concentration-response curve) at mCherry-AID-Blast R stood at 110 nM. Besides, the “Time to death of parental cells” value in the assay with parental cells is given as at most 3 days.
